Results taken from paper PMC11509018, “Evaluation of the Role of Tanshinone I in an In Vitro System of Charcot-Marie-Tooth Disease Type 2N” (International Journal of Molecular Sciences, 2024).

Target: T1, AlaRS N71Y binding to GST-Nrp1 b1 (Homo sapiens, UniProt P49588, N71Y)
T1 construct: made in house; host or cells: E. coli BL21 (DE3), pET-21a for AlaRS
T1 sequence (P49588 1-968 N71Y): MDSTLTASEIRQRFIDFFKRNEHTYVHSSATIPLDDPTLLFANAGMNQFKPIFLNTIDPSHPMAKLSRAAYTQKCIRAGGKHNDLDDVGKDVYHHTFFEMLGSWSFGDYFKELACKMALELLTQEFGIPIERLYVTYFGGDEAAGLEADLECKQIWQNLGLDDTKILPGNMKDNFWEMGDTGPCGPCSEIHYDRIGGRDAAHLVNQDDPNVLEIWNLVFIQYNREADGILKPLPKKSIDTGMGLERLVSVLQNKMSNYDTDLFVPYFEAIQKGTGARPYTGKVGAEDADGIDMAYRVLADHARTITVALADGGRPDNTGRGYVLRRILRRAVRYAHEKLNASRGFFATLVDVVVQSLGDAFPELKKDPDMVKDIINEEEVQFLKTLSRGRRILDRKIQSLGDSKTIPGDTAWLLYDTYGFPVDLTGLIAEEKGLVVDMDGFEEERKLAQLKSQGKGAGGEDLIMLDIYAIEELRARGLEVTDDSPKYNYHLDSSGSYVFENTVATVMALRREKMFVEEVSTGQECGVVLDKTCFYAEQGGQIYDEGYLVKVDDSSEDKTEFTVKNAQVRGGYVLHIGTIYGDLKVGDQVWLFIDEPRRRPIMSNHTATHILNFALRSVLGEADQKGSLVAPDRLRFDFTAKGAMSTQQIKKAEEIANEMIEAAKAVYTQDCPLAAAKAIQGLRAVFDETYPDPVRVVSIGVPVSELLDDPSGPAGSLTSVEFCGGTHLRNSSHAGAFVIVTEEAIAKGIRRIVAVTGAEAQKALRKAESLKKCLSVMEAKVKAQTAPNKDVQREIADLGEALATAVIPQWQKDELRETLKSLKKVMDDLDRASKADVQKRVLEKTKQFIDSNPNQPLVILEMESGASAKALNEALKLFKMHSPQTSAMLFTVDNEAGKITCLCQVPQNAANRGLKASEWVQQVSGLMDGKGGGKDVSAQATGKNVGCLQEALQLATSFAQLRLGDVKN
Assay: GST pull down assay
Details: 20 µM Tanshinone I, ImageJ, average of three repeats

Mean density band (N71Y), relative quantification of AlaRS mutant pulled down: 0.82
Structure (SMILES): Cc1coc2c1C(=O)C(=O)c1c-2ccc2c(C)cccc12 [Tanshinone I]
